Experimental data: patent US20040204466A1, “Treatment of bronchial asthma using 5-HT3 receptor antagonists” (Orchid Chemicals and Pharmaceuticals Ltd., priority 2003, published 2004)

Tests used:
Format in all cases: in vivo, female Balb/c mice
[1] = test system: ovalbumin sensitized and challenged mice; assay: Eosinophils in BAL fluid following methacholine challenge; details: immediately following methacholine challenge; FIGS. 7 and 8
[2] = test system: ovalbumin sensitized and challenged mice; assay: Ova-specific airway resistance of early and late allergic response to antigen challenge; details: gavage 120 μg/kg twice a day for 10 days
Method: Four to five-week old female Balb/c mice (Harlan Laboratories, Indianapolis, Ind.) were housed according to the NIH guidelines and were allowed constant access to food and water. Intraperitoneal injections of 6 μg of grade V chicken egg ovalbumin (Ova; Sigma-Aldrich, St. Louis, Mo.) adsorbed to 2.25 mg Imject Alum (Pierce, Rockford, Ill.) and dissolved in PBS. Aerosol sensitization with 0.2% ovalbumin (Ova) for 10 minutes using Ultra-Neb 90 nebulizer (DeVilbiss, Somerset, Pa.). Ondansetron was administered by gavage in the dose of 120 μg/kg twice a day for 10 days.

[3] = test system: ovalbumin sensitized and challenged mice; assay: Serum IgE levels; details: gavage 120 μg/kg twice a day for 10 days; values increased, albeit insignificantly
[4] = test system: ovalbumin sensitized and challenged mice; assay: Airway hyperresponsiveness to methacholine (Penh, barometric plethysmography); details: 24 hours after antigen challenge, increasing doses of methacholine, FIGS. 5 and 6
Method: Four to five-week old female Balb/c mice (Harlan Laboratories, Indianapolis, Ind.) were housed according to the NIH guidelines and were allowed constant access to food and water. Intraperitoneal injections of 6 μg of grade V chicken egg ovalbumin (Ova; Sigma-Aldrich, St. Louis, Mo.) adsorbed to 2.25 mg Imject Alum (Pierce, Rockford, Ill.) and dissolved in PBS. Aerosol sensitization with 0.2% ovalbumin (Ova) for 10 minutes using Ultra-Neb 90 nebulizer (DeVilbiss, Somerset, Pa.). Twenty-four hours after antigen challenge, the mice were challenged with increasing does of methacholine and Penh values were recorded by barometric plethysmography.

Q: What does the source list for `Cc1nccn1CC1CCc2c(c3ccccc3n2C)C1=O` (centres unmarked) [Ondansetron]?
A: numbers of eosinophil in BAL [1]: significantly descried numbers of eosinophil; Ova-specific airway resistance of the early allergic response (EAR) ([2]; FIG. 1): without EAR protection; Ova-specific airway resistance of the late allergic response (LAR) ([2]; P <0.001, FIG. 2): significant protection during the LAR; mean serum IgE concentrations [3]: unaffected; AHR to methacholine [4]: completely suppressed
